Structures can show the parent of a compound that is named as a salt. Where two headings read alike, the source gives them in different places.
Columns and labels:
L. tarentolae lysate = assay: Cell-free transcription-translation inhibition in L. tarentolae lysate; format: biochemical; conditions: for IC50: inhibition of translation in active cell lysate, EGFP reporter, 120 min at 26 °C
Description: (§1) Cytosolic ribosome susceptibility and selectivity were assessed through three different cell-free transcription-translation assays: (1) An extract of E. coli (S30, Promega, Madison, WI, USA), (2) in rabbit reticulocytes (Promega), and (3) in L. tarentolae lysate (Jena Bioscience, Jena, Germany). Three plasmids, compatible with each extract system, were used in this study: pBESTlucTM (Promega) for the prokaryotic translation assay, Luciferase T7 DNA (Promega) for the reticulocytes, and pLEXSY-invitro2-EGFP (Jena Bioscience) for Leishmania. Firefly luciferase was used as a reporter gene for the bacterial and reticulocyte systems, and EGFP for Leishmania. […] Assays were performed in white polystyrene 96-well flat-bottom plates (Nunc, Roskilde, Denmark) for luciferase and black polystyrene 384-well flat-bottom plates (Greiner, Kremsmunster, Austria) for EGFP. Incubation times were 60 min at 37 °C, 90 min at 30 °C, and 120 min at 26 °C for the bacterial, reticulocyte, and Leishmania systems, respectively. Reactions were stopped by quick snap cooling followed by a 5 min incubation on ice. Luciferase activity was measured for each well following the addition of 50 μL of Luciferase Assay reagent (Promega, Madison, WI, USA) with an automatic reagent injector (Tecan, Mannedorf, Switzerland) by recording the chemical-luminescence signal. EGFP fluorescence (λex = 488 nm; λem = 507 nm) was recorded on a Tecan Infinite R®F200 microplate reader (Tecan). Extracts lacking the circular DNA template were used as a negative control to calculate the fluorescence/chemical luminescence background. Reaction mixtures without compounds were used as positive controls and were regarded as 100% translation. Paromomycin was used as a control reagent in all assays. At least six different concentrations were used to plot each translation inhibition curve; experiments were performed in three independent repeats in duplicate. Half maximal inhibition concentrations (IC50) values were calculated from the concentration-response fitting curves using GraFit7.0.3 software.

extract of E. coli (S30) = assay: Cell-free transcription-translation inhibition in E. coli S30 extract; format: biochemical; conditions: for IC50: inhibition of translation in active cell lysate, luciferase reporter, 60 min at 37 °C; for effect on E. coli (in words): translation assay
Description: as §1

[1] = tested on: rabbit reticulocytes (RR); assay: Cell-free transcription-translation inhibition in rabbit reticulocytes; format: biochemical; conditions: inhibition of translation in rabbit reticulocyte lysate, luciferase reporter, 90 min at 30 °C
Description: as §1

[2] = tested on: Leishmania infantum (MHOM/MA/67/ITMAP-263) wild-type strain; assay: Anti-leishmanial activity on promastigotes, L. infantum WT; format: cell-based; conditions: 72 h, 25 °C
Description: (§2) The L. infantum (MHOM/MA/67/ITMAP-263) wild-type strain (WT), as well as the resistant mutants Sb2000.1, AmB1000.1, and MF200.5 [29, 30, 31, 32, 33], which are respectively resistant to antimony (Sb^III), amphotericin B (AmB), and miltefosine (MF), were grown in M199 medium at 25 °C supplemented with 10% fetal bovine serum, 5 μg/mL of haemin at pH 7.0, 2000 μM Sb (Potassium antimonyl tartrate trihydrate, Sigma-Aldrich, Saint Louis, MO, USA), 200 μM of MF (Miltefosine, Cayman Chem, Ann Arbor, MI, USA) or 1 μM AmB (Amphotericin B solution, Sigma-Aldrich, Saint Louis, MO, USA). Leishmanicidal values were determined in Leishmania promastigotes by monitoring the replication of parasites after 72 h of incubation at 25 °C in the presence of increasing concentrations of the different compounds by measuring A600 using a Cytation 5 machine (BioTek-Agilent, Santa Clara, CA 9, USA). EC50 values were calculated based on dose–response curves analyzed by non-linear regression with GraphPad Prism 10.0 software (GraphPad Software, La Jolla, CA, USA). An average of at least three independent biological replicates were performed for each determination.

[3] = tested on: Leishmania major Friedlin; assay: Anti-leishmanial activity on promastigotes, L. major Friedlin; format: cell-based; conditions: 72 h, 25 °C
[4] = tested on: Leishmania infantum (MHOM/MA/67/ITMAP-263) resistant to 2 mM trivalent (and pentavalent) antimonials; assay: Anti-leishmanial activity on promastigotes, antimony-resistant L. infantum; format: cell-based; conditions: 72 h
Description: as §2

[5] = tested on: Leishmania infantum (MHOM/MA/67/ITMAP-263) resistant to 200 µM miltefosine; assay: Anti-leishmanial activity on promastigotes, miltefosine-resistant L. infantum; format: cell-based; conditions: 72 h
Description: as §2

[6] = tested on: Leishmania infantum (MHOM/MA/67/ITMAP-263) resistant to 1 µM amphotericin B; assay: Anti-leishmanial activity on promastigotes, amphotericin B-resistant L. infantum; format: cell-based; conditions: 72 h
Description: as §2

[7] = tested on: L. infantum WT amastigotes in BMDM; assay: Drug susceptibility of intracellular amastigotes in infected BMDM, L. infantum; format: cell-based; conditions: Leishmania infantum; infected BMDM macrophages, 48 h; read-out: EC50 against amastigotes of L. infantum
Description: (§3) The effect of isopropyl ether 22a on the amastigote intracellular form of Leishmania was determined by the measurement of EC50 values in cells, as previously described. Briefly, 2.5 × 10^5 bone-marrow-derived macrophages (BMDMs) were plated into the wells of 12-well chamber slides (Ibidi) with complete DMEM medium. A culture of L. infantum or L. major WT promastigotes in stationary phase in a ratio of 1:5 BMDM to parasites was used to infect cells. Infection was carried out for 3 h at 37 °C in DMEM medium with 5% CO2 without drug. After 24 h, increasing concentrations of ether 22a were added to the medium containing the infected macrophages. After 48 h, the slides were fixed in methanol and stained with Diff-Quick solution to facilitate parasite visualization. The number of infecting amastigotes per 100 cells was determined by examining 300 macrophages per triplicate assay and normalized to the untreated control. EC50 values in the amastigote form were calculated based on dose–response curves that were analyzed by non-linear regression using the GraphPad Prism 9.0 software. An average of three independent biological replicates was used to perform the analyses.

[8] = tested on: L. major WT amastigotes in BMDM; assay: Drug susceptibility of intracellular amastigotes in infected BMDM, L. major; format: cell-based; conditions: Leishmania major; infected BMDM macrophages, 48 h; read-out: EC50 against amastigotes of L. major
Description: as §3

host macrophage (BMDM) = assay: Host macrophage toxicity, MTT survival assay; format: cell-based
[9] = Leishmania infantum, read-out: IC50 (μM) Ldi WT
[10] = Leishmania major, read-out: IC50 (μM) LmF WT
[11] = Leishmania infantum, read-out: IC50 (μM) Ldi Sb-Res
[12] = Leishmania infantum, read-out: IC50 (μM) Ldi MF-Res
[13] = Leishmania infantum, read-out: IC50 (μM) Ldi AmB-Res

Row | Compound | IC50 (L. tarentolae lysate) [µM] | IC50 (extract of E. coli (S30)) [µM] | IC50 [1] [µM] | also measured
1 | COc1ccc(C[C@H]2NC[C@H](O)[C@H]2OC(C)=O)cc1I [Analog 16, (2R,3S,4S)-4-hydroxy-2-(3-iodo-4-methoxybenzyl)-pyrrolidin-3-yl acetate] | > 1000 | > 1000 | 73.7 ± 1.7 | activity against L. tarentolae translation / anti-protozoan activity (in words) (L. tarentolae lysate): abolished anti-protozoan activity
2 | COc1ccc(C[C@H]2NC[C@H](O)[C@H]2O)cc1 [Analog 2, (2R,3S,4S)-3,4-dihydroxy-2-(4-methoxybenzyl)-pyrrolidine] | > 100 | > 1000 | > 1000 | 
3 | COc1ccc(C[C@H]2NC[C@H](O)[C@H]2OC(C)=O)cc1 [Analog 1, Anisomycin] | 0.55 ± 0.03 | > 500 | 0.1 ± 0.02 | effect on E. coli (in words) (extract of E. coli (S30)): no effect
4 | CC(=O)O[C@@H]1[C@@H](O)CN[C@@H]1Cc1ccc(OC(C)C)cc1 [Analog 22a, (2R,3S,4S)-4-hydroxy-2-(4-iso-propoxybenzyl)-pyrrolidin-3-yl acetate] | 1.13 ± 0.12 | > 200 | 0.9 ± 0.3 | effect on E. coli (in words) (extract of E. coli (S30)): no effect; IC50 ([2]; Leishmania infantum, unit nM, read-out: IC50 Ldi WT): 122 ± 5.62 nM; IC50 ([3]; Leishmania major, unit nM, read-out: IC50 LmF WT): 180 ± 4.69 nM; IC50 ([4]; Leishmania infantum, read-out: IC50 Ldi Sb-Res): 0.129 ± 0.00316 µM; IC50 ([5]; Leishmania infantum, read-out: IC50 Ldi MF-Res): 0.133 ± 0.0078 µM; IC50 ([6]; Leishmania infantum, read-out: IC50 Ldi AmB-Res): 0.119 ± 0.0141 µM; EC50 [7]: 33.3 nM; EC50 [8]: 53.7 nM; fold greater selectivity against the different amastigotes relative to host macrophage toxicity (host macrophage (BMDM); MTT survival assay): 5–10 fold; host cell toxicity (in words) (host macrophage (BMDM); host BMDM cells): without host cell toxicity
5 | CC(=O)O[C@@H]1[C@@H](O)CN[C@@H]1Cc1cc(CN(C)C)c(O)c(CN(C)C)c1 [Analog 19, (2R,3S,4S)-4-hydroxy-2-[3,5-di-(dimethylaminomethyl)-4-hydroxybenzyl]-pyrrolidin-3-yl acetate] | > 1000 | > 200 | 70.7 ± 7.3 | activity against L. tarentolae translation / anti-protozoan activity (in words) (L. tarentolae lysate): abolished anti-protozoan activity
6 | COc1ccc(C[C@@H]2[C@H](OC(C)=O)[C@@H](O)CN2C)cc1 [Analog 8, (2R,3S,4S)-1-methyl-4-hydroxy-2-(4-methoxybenzyl)-pyrrolidin-3-yl acetate] | > 100 | > 1000 | 25.5 ± 3.6 | 
7 | COc1ccc(C[C@H]2NC[C@H](O)[C@H]2OC)cc1 [Analog 11, (2R,3S,4S)-3-methoxy-4-hydroxy-2-(4-methoxybenzyl)-pyrrolidine hydrochloride] | 24 ± 2.5 | > 1000 | 70.9 ± 8.3 | 
8 | CC(=O)O[C@@H]1[C@@H](O)CN[C@@H]1Cc1ccc(OCc2ccccc2)cc1 [Analog 22c, (2R,3S,4S)-4-hydroxy-2-(4-benzyloxybenzyl)-pyrrolidin-3-yl acetate] | 7.96 ± 1.02 | > 200 | 0.9 ± 0.2 | 
9 | Potassium antimonyl tartrate trihydrate [reference compound] |  |  |  | IC50 ([2]; read-out: IC50 (μM) Ldi WT): 75800 ± 6130 nM; IC50 ([3]; read-out: IC50 (μM) LmF WT): 25000 ± 1130 nM; IC50 ([4]; promastigotes, 25 °C, read-out: IC50 (μM) Ldi Sb-Res): > 2000 µM; IC50 ([5]; promastigotes, 25 °C, read-out: IC50 (μM) Ldi MF-Res): 85.3 ± 7.1 µM; IC50 ([6]; promastigotes, 25 °C, read-out: IC50 (μM) Ldi AmB-Res): 90.2 ± 8.3 µM
10 | CC(=O)O[C@@H]1[C@@H](O)CN[C@@H]1Cc1cc(CN2CCOCC2)c(O)c(CN2CCOCC2)c1 [Analog 20, (2R,3S,4S)-4-hydroxy-2-[3,5-di-(morpholinomethyl)-4-hydroxybenzyl]-pyrrolidin-3-yl acetate] | > 1000 | > 1000 | > 1000 | activity against L. tarentolae translation / anti-protozoan activity (in words) (L. tarentolae lysate): abolished anti-protozoan activity
11 | NC[C@@H]1O[C@H](O[C@H]2[C@@H](O)[C@H](O[C@@H]3[C@@H](O)[C@H](N)C[C@H](N)[C@H]3O[C@H]3O[C@H](CO)[C@@H](O)[C@H](O)[C@H]3N)O[C@@H]2CO)[C@H](N)[C@@H](O)[C@@H]1O [Paromomycin, reference compound] | 3.62 ± 0.09 | 0.051 ± 0.005 | 21 ± 1.1 | 
12 | CCCCCCCCOc1ccc(C[C@H]2NC[C@H](O)[C@H]2OC(C)=O)cc1 [Analog 22b, (2R,3S,4S)-4-hydroxy-2-(4-octyloxybenzyl)-pyrrolidin-3-yl acetate] | 33.5 ± 8.2 | > 200 | 9.5 ± 3.5 | IC50 [2, 9]: 1110 ± 30 nM; IC50 [3, 10]: 1750 ± 120 nM; IC50 [4, 11]: 1.75 ± 0.08 µM; IC50 [5, 12]: 1.83 ± 0.06 µM; IC50 [6, 13]: 1.78 ± 0.58 µM
13 | COc1ccc(C[C@H]2NC[C@H](OC)[C@H]2OC)cc1 [Analog 10, (2R,3S,4S)-3,4-dimethoxy-2-(4-methoxybenzyl)-pyrrolidine hydrochloride] | > 1000 | > 1000 | > 1000 | 
14 | CC(=O)O[C@@H]1[C@@H](O)CN[C@@H]1Cc1ccc(O)cc1 [Analog 17, (2R,3S,4S)-4-hydroxy-2-(4-hydroxybenzyl)-pyrrolidin-3-yl acetate] | 53.7 ± 6.1 | > 200 | 6.2 ± 0.45 | 
15 | CC(=O)O[C@@H]1[C@@H](O)CN[C@@H]1Cc1ccc(OCC(=O)O)cc1 [Analog 22d, (2R,3S,4S)-4-hydroxy-2-(4-carboxymethyloxybenzyl)-pyrrolidin-3-yl acetate] |  |  |  | IC50 [2, 9]: 14900 ± 2180 nM; IC50 [3, 10]: 16600 ± 2230 nM; IC50 [4, 11]: 16 ± 1.03 µM; IC50 [5, 12]: 18.2 ± 2.33 µM; IC50 [6, 13]: 19.2 ± 1.24 µM
16 | CCCCCCCCCCCCCCCCOP(=O)([O-])OCC[N+](C)(C)C [Miltefosine, reference compound] |  |  |  | IC50 [2, 9]: 7160 ± 210 nM; IC50 [3, 10]: 8470 ± 1180 nM; IC50 [4, 11]: 8.21 ± 0.53 µM; IC50 [5, 12]: > 200 µM; IC50 [6, 13]: 30.3 ± 4.28 µM
17 | COc1ccc(C[C@H]2NC[C@H](OC(C)=O)[C@H]2OC(C)=O)cc1 [Analog 9, (2R,3S,4S)-3,4-diacetoxy-2-(4-methoxybenzyl)-pyrrolidine hydrochloride] | > 100 | > 1000 | 25.7 ± 8.5 | 
